From patent US20040006047A1, “Heterocyclic amides, a process for their preparation, compositions comprising them and their use” (priority 2001, published 2004)

melting point | Compound
248 °C (dec.) | O=C(NC1CCS(=O)(=O)CC1)c1cnccc1C(F)(F)F [Example D, N-(Tetrahydrothiopyran-4-yl)-4-trifluoromethylnicotinamide S,S-dioxide]
155 to 156 °C | CC1(C)OCC(NC(=O)c2cnccc2C(F)(F)F)CO1 [Example E, N-(2,2-Dimethyl-1,3-dioxa-cyclohexyl)-4-trifluoromethylnicotinamide]
149 to 150 °C | O=C(NC1CCOCC1)c1cnccc1C(F)(F)F [Example A, N-(Tetrahydropyran-4-yl)-4-trifluoromethylnicotinamide]
243 to 244 °C | O=C(NC1CC[S+]([O-])CC1)c1cnccc1C(F)(F)F (stereo not shown) [Example C, N-(Tetrahydrothiopyran-4-yl)-4-trifluoromethylnicotinamide S-oxide]
